# Reference: patent US20250360130A1, “METHODS OF TREATING INDOLENT SYSTEMIC MASTOCYTOSIS” (Telios Pharma Inc., priority 2024, published 2025)
# Columns and labels:
# basophils = experiment: Comparison of BTK inhibitors by BAT (CD63, CD203c); format: cell-based, human; settings: concentration of 1 μM, 2 hours, blood from a healthy donor
# Experimental: The BAT assay using the Flow Cast Basophil Activation Kit (Buhlmann Diagnostics; Catalog #B-CCR-STCON) was then conducted following manufacturer instructions by (1) stimulating the blood with anti-FcεR stimulation control in stimulation buffer with IL-3 and staining cells for CCR3 and CD63 for 15 minutes at 37° C., (2) lysing red blood cells and fixing cells with Lysing Reagent at room temperature for 10 minutes, (3) washing cells with Wash Buffer, and (4) acquiring data on a flow cytometer. Activated basophils were defined as CCR3+, low side scatter and CD63+. Percent of activated basophils was calculated as number of activated basophils over the total number of basophils. A four-parameter logistic regression was applied to determine the EC50 and EC90.
# Blood samples were gently rocked at room temperature for 2 hours. […] Activated basophils were also defined as CCR3+, low side scatter and CD203c+.
# ISM patients = settings: cited from earlier work
# mast cells = experiment: Phosphorylation and degranulation of antigen-stimulated mast cells grown with chronic SCF (FIG. 21); format: cell-based; settings: 1 μM, antigen 15 minutes
# Experimental: Histamine release, CD63 expression, CD203c expression, pBTK (Y223) levels, pP38 (T180/Y182) levels, pPLCg1 (S1248) levels, pERK (T202/Y204) levels, and pS6 (S235/236) levels are shown. Mast cells were grown with continuous (chronic) exposure to SCF and then stimulated with antigen (Ag) for 15 minutes, leading to phosphorylation of multiple kinases, including pBTK, […], pP38, pERK, and pS6 ribosome. This stimulation increases degranulation markers, including CD63, CD203c, and histamine release.
# [1] = test system: subjects with AdvSM and ISM; settings: cited from earlier work
# humans = settings: cited from earlier work
compound,measurement,setting,value
"CC#CC(=O)N1CCC[C@H]1c1nc(-c2ccc(C(=O)Nc3ccccn3)cc2)c2c(N)nccn12 [acalabrutinib, Acalabrutinib ((S)-4-(8-amino-3-(1-(but-2-ynoyl)pyrrolidin-2-yl)imidazo[1,5-a]pyrazin-1-yl)-N-(pyridin-2-yl)benzamide), reference compound]","basophil activation (CD63+, CD203c+)",basophils,no effect on basophil activation
Cn1cc(-c2cc3c(N4CCN(c5ncc([C@@](C)(N)c6ccc(F)cc6)cn5)CC4)ncnn3c2)cn1 [avapritinib],reduction of total symptom score compared to the placebo,"ISM patients; 25 mg QD, week 24, ISM patients",5.7 points
same,ISM patients with dose interruptions due to adverse reactions,ISM patients; 25 mg QD,5%
same,treated subjects who failed to achieve a mean symptom score reduction of 30%,"ISM patients; ISM patients, first 6 months of treatment",approximately half
same,subjects who achieved a 50% symptom score reduction,"ISM patients; ISM patients, within the first 6 months of treatment",about a third
same,activation (phosphorylation and degranulation) of mast cells,mast cells,only partially inhibits activation
Cc1nc(Nc2ncc(C(=O)Nc3c(C)cccc3Cl)s2)cc(N2CCN(CCO)CC2)n1 [dasatinib],subjects who discontinued treatment due to toxicity,"[1]; 15 subjects with AdvSM and 18 subjects with ISM, overall",34%
same,"pleural effusion, grade 3 adverse event, patients overall",[1]; overall study population,10%
"C=CC(=O)N1CCC[C@@H](n2nc(-c3ccc(Oc4ccccc4)cc3)c3c(N)ncnc32)C1 [ibrutinib, Ibrutinib (1-[(3R)-3-[4-amino-3-(4-phenoxyphenyl)pyrazolo[3,4-d]pyrimidin-1-yl]piperidin-1-yl]prop-2-en-1-one)]",adverse events associated with administration,humans,"heightened risk of atrial fibrillation, hypertension, major bleeding events, and cytopenias"
